4 compounds from patent publication US10195255B2, “GLP-1 derivatives and uses thereof” (Novo Nordisk A/S, priority 2013, dated 2019) can be followed below.

Where a SMILES comes first, the peptide text is derived from it. [ ]: non-standard residue; d: D form. The star is where a group is joined. X3 = O=C(O)CCCCCCCCCCCCCCCCCCC(=O)NCC1CCC(C(=O)N[C@@H](CCC(=O)NCCOCCOCC(=O)NCCOCCOCC(=O)NCCCC[C@H](NC(=O)COCCOCCNC(=O)COCCOCCNC(=O)CC[C@H](NC(=O)C2CCC(CNC(=O)CCCCCCCCCCCCCCCCCCC(=O)O)CC2)C(=O)O)C(=O)*)C(=O)O)CC1; X2 = O=C(O)CCCCCCCCCCCCCCCCCCC(=O)N1CCC(C(=O)N[C@@H](CCC(=O)NCCOCCOCC(=O)NCCOCCOCC(=O)NCCCC[C@H](NC(=O)COCCOCCNC(=O)COCCOCCNC(=O)CC[C@H](NC(=O)C2CCN(C(=O)CCCCCCCCCCCCCCCCCCC(=O)O)CC2)C(=O)O)C(=O)*)C(=O)O)CC1; X1 = O=C(O)CCCCCCCCCCCCCCCCCCC(=O)N[C@@H](CCC(=O)NCCOCCOCC(=O)NCCOCCOCC(=O)NCCCC[C@H](NC(=O)COCCOCCNC(=O)COCCOCCNC(=O)CC[C@H](NC(=O)CCCCCCCCCCCCCCCCCCC(=O)O)C(=O)O)C(=O)*)C(=O)O; Aib = CC(C)(N)C(=O)O

The nature of data set [1]: Pharmacokinetic study in minipigs (i.v.).
Procedure: (§1) This is done in a pharmacokinetic (PK) study, where the terminal half-life of the derivative in question is determined. By terminal half-life is meant the time it takes to halve a certain plasma concentration in the terminal elimination phase.
(§2) Male Göttingen minipigs were obtained from Ellegaard Göttingen Minipigs (Dalmose, Denmark) approximately 7-14 months of age and weighing approximately 16-35 kg were used in the studies. The minipigs were housed either individually (pigs with permanent catheters) or in a group and fed restrictedly once or twice daily with SDS minipig diet (Special Diets Services, Essex, UK).
(§3) After at least 2 weeks of acclimatisation two permanent central venous catheters were implanted in vena cava caudalis or cranialis in each animal. The animals were allowed 1 week recovery after the surgery, and were then used for repeated pharmacokinetic studies with a suitable wash-out period between successive GLP-1 derivative dosings.
(§4) Blood samples (for example 0.8 ml) were collected in EDTA buffer (8 mM) and then centrifuged at 4° C. and 1942 G for 10 minutes.
(§5) Plasma was pipetted into Micronic tubes on dry ice, and kept at −20° C. until analysed for plasma concentration of the respective GLP-1 compound using LOCI. Individual plasma concentration-time profiles were analyzed by a non-compartmental pharmacokinetic method in Phoenix v. 6.2 (Pharsight Inc., Mountain View, Calif., USA), or other relevant software for PK analysis, and the resulting terminal half-lives (harmonic mean) determined.
Data set [2] in a line: in vivo. The conditions noted are these: male, Göttingen, minipig, iv.
Procedure: as §1, §2, §3, §4, §5

`CC[C@H](C)[C@H](NC(=O)[C@H](Cc1ccccc1)NC(=O)[C@H](CCC(=O)O)NC(=O)[C@H](CCCNC(=N)N)NC(=O)[C@H](C)NC(=O)[C@H](C)NC(=O)[C@H](CCC(N)=O)NC(=O)[C@H](CCC(=O)O)NC(=O)[C@H](CCC(=O)O)NC(=O)[C@H](CC(C)C)NC(=O)[C@H](Cc1ccc(O)cc1)NC(=O)[C@H](CO)NC(=O)[C@H](CO)NC(=O)[C@@H](NC(=O)[C@H](CC(=O)O)NC(=O)[C@H](CO)NC(=O)[C@@H](NC(=O)[C@H](Cc1ccccc1)NC(=O)[C@@H](NC(=O)CNC(=O)[C@H](CCC(=O)O)NC(=O)C(C)(C)NC(=O)[C@@H](N)Cc1c[nH]cn1)[C@@H](C)O)[C@@H](C)O)C(C)C)C(=O)N[C@@H](C)C(=O)N[C@@H](Cc1c[nH]c2ccccc12)C(=O)N[C@@H](CC(C)C)C(=O)N[C@H](C(=O)N[C@@H](CCCNC(=N)N)C(=O)NCC(=O)N[C@@H](CCCNC(=N)N)C(=O)NCC(=O)NCC(=O)N[C@@H](CO)C(=O)N[C@@H](CCCCNC(=O)[C@H](CCCCNC(=O)COCCOCCNC(=O)COCCOCCNC(=O)CC[C@H](NC(=O)C1CCC(CNC(=O)CCCCCCCCCCCCCCCCCCC(=O)O)CC1)C(=O)O)NC(=O)COCCOCCNC(=O)COCCOCCNC(=O)CC[C@H](NC(=O)C1CCC(CNC(=O)CCCCCCCCCCCCCCCCCCC(=O)O)CC1)C(=O)O)C(=O)O)C(C)C` (stereo partly drawn) [Example 3, [Aib8,Glu22,Arg26,Arg34]-GLP-1-(7-37)-peptidyl-Gly-Ser-N{Epsilon}[(2S)-2,6-bis[[2-[2-[2-[[2-[2-[2-[[(4S)-4-carboxy-4-[[4-[(19-carboxynonadecanoylamino)methyl]cyclohexanecarbonyl]amino]butanoyl]amino]ethoxy]ethoxy]acetyl]amino]ethoxy]ethoxy]acetyl]amino]hexanoyl]Lys] (H-H[Aib]EGTFTSDVSSYLEEQAAREFIAWLVRGRGGSK(X3)-OH): the “Terminal half-live” value in data set [1] (minipigs, i.v., 2 nmol/kg, harmonic mean) was 122 h.

In the case of `CC[C@H](C)[C@H](NC(=O)[C@H](Cc1ccccc1)NC(=O)[C@H](CCC(=O)O)NC(=O)[C@H](CCCNC(=N)N)NC(=O)[C@H](C)NC(=O)[C@H](C)NC(=O)[C@H](CCC(N)=O)NC(=O)[C@H](CCC(=O)O)NC(=O)[C@H](CCC(=O)O)NC(=O)[C@H](CC(C)C)NC(=O)[C@H](Cc1ccc(O)cc1)NC(=O)[C@H](CO)NC(=O)[C@H](CO)NC(=O)[C@@H](NC(=O)[C@H](CC(=O)O)NC(=O)[C@H](CO)NC(=O)[C@@H](NC(=O)[C@H](Cc1ccccc1)NC(=O)[C@@H](NC(=O)CNC(=O)[C@H](CCC(=O)O)NC(=O)C(C)(C)NC(=O)[C@@H](N)Cc1c[nH]cn1)[C@@H](C)O)[C@@H](C)O)C(C)C)C(=O)N[C@@H](C)C(=O)N[C@@H](Cc1c[nH]c2ccccc12)C(=O)N[C@@H](CC(C)C)C(=O)N[C@H](C(=O)N[C@@H](CCCNC(=N)N)C(=O)NCC(=O)N[C@@H](CCCNC(=N)N)C(=O)NCC(=O)N[C@@H](CCCCNC(=O)[C@H](CCCCNC(=O)COCCOCCNC(=O)COCCOCCNC(=O)CC[C@H](NC(=O)C1CCN(C(=O)CCCCCCCCCCCCCCCCCCC(=O)O)CC1)C(=O)O)NC(=O)COCCOCCNC(=O)COCCOCCNC(=O)CC[C@H](NC(=O)C1CCN(C(=O)CCCCCCCCCCCCCCCCCCC(=O)O)CC1)C(=O)O)C(=O)O)C(C)C` [Example 18, N{Alpha}([Aib8,Glu22,Arg26,Arg34]-GLP-1-(7-37)-peptidyl)-N{Epsilon}[(2S)-2,6-bis[[2-[2-[2-[[2-[2-[2-[[(4S)-4-carboxy-4-[[1-(19-carboxynonadecanoyl)piperidine-4-carbonyl]amino]butanoyl]amino]ethoxy]ethoxy]acetyl]amino]ethoxy]ethoxy]acetyl]amino]hexanoyl]Lys] (H-H[Aib]EGTFTSDVSSYLEEQAAREFIAWLVRGRGK(X2)-OH), in data set [1] (male, Göttingen, minipig, plasma, iv, 15 nmol/kg), the half-life (commonly how long it takes for the measured level to halve) is 140 h.

In data set [2], `CC[C@H](C)[C@H](NC(=O)[C@H](Cc1ccccc1)NC(=O)[C@H](CCC(=O)O)NC(=O)[C@H](CCCNC(=N)N)NC(=O)[C@H](C)NC(=O)[C@H](C)NC(=O)[C@H](CCC(N)=O)NC(=O)[C@H](CCC(=O)O)NC(=O)[C@H](CCC(=O)O)NC(=O)[C@H](CC(C)C)NC(=O)[C@H](Cc1ccc(O)cc1)NC(=O)[C@H](CO)NC(=O)[C@H](CO)NC(=O)[C@@H](NC(=O)[C@H](CC(=O)O)NC(=O)[C@H](CO)NC(=O)[C@@H](NC(=O)[C@H](Cc1ccccc1)NC(=O)[C@@H](NC(=O)CNC(=O)[C@H](CCC(=O)O)NC(=O)C(C)(C)NC(=O)[C@@H](N)Cc1c[nH]cn1)[C@@H](C)O)[C@@H](C)O)C(C)C)C(=O)N[C@@H](C)C(=O)N[C@@H](Cc1c[nH]c2ccccc12)C(=O)N[C@@H](CC(C)C)C(=O)N[C@H](C(=O)N[C@@H](CCCNC(=N)N)C(=O)NCC(=O)N[C@@H](CCCNC(=N)N)C(=O)N[C@@H](CCCCNC(=O)[C@H](CCCCNC(=O)COCCOCCNC(=O)COCCOCCNC(=O)CC[C@H](NC(=O)CCCCCCCCCCCCCCCCCCC(=O)O)C(=O)O)NC(=O)COCCOCCNC(=O)COCCOCCNC(=O)CC[C@H](NC(=O)CCCCCCCCCCCCCCCCCCC(=O)O)C(=O)O)C(=O)O)C(C)C` [Example 6, N{Epsilon-37}-[(2S)-2,6-bis[[2-[2-[2-[[2-[2-[2-[[(4S)-4-carboxy-4-(19-carboxynonadecanoylamino)butanoyl]amino]ethoxy]ethoxy]acetyl]amino]ethoxy]ethoxy]acetyl]amino]hexanoyl]-[Aib8,Glu22,Arg26,Arg34,Lys37]-GLP-1-(7-37)-peptide] showed a half-life of 128 h.

As to `CC[C@H](C)[C@H](NC(=O)[C@H](Cc1ccccc1)NC(=O)[C@H](CCC(=O)O)NC(=O)[C@H](CCCNC(=N)N)NC(=O)[C@H](C)NC(=O)[C@H](C)NC(=O)[C@H](CCC(N)=O)NC(=O)[C@H](CCC(=O)O)NC(=O)[C@H](CCC(=O)O)NC(=O)[C@H](CC(C)C)NC(=O)[C@H](Cc1ccc(O)cc1)NC(=O)[C@H](CO)NC(=O)[C@H](CO)NC(=O)[C@@H](NC(=O)[C@H](CC(=O)O)NC(=O)[C@H](CO)NC(=O)[C@@H](NC(=O)[C@H](Cc1ccccc1)NC(=O)[C@@H](NC(=O)CNC(=O)[C@H](CCC(=O)O)NC(=O)C(C)(C)NC(=O)[C@@H](N)Cc1c[nH]cn1)[C@@H](C)O)[C@@H](C)O)C(C)C)C(=O)N[C@@H](C)C(=O)N[C@@H](Cc1c[nH]c2ccccc12)C(=O)N[C@@H](CC(C)C)C(=O)N[C@H](C(=O)N[C@@H](CCCNC(=N)N)C(=O)NCC(=O)N[C@@H](CCCNC(=N)N)C(=O)NCC(=O)N[C@@H](CCCCNC(=O)[C@H](CCCCNC(=O)COCCOCCNC(=O)COCCOCCNC(=O)CC[C@H](NC(=O)CCCCCCCCCCCCCCCCCCC(=O)O)C(=O)O)NC(=O)COCCOCCNC(=O)COCCOCCNC(=O)CC[C@H](NC(=O)CCCCCCCCCCCCCCCCCCC(=O)O)C(=O)O)C(=O)O)C(C)C` [Example 9, N{Alpha}([Aib8,Glu22,Arg26,Arg34]-GLP-1-(7-37)-peptidyl)-N{Epsilon}[(2S)-2,6-bis[[2-[2-[2-[[2-[2-[2-[[(4S)-4-carboxy-4-(19-carboxynonadecanoylamino)butanoyl]amino]ethoxy]ethoxy]acetyl]amino]ethoxy]ethoxy]acetyl]amino]hexanoyl]Lys] (H-H[Aib]EGTFTSDVSSYLEEQAAREFIAWLVRGRGK(X1)-OH; N-terminus and C-terminus assumed), the half-life in data set [2] is 131 h. This half-life and that of the compound before are within 1.5-fold of each other.
